Source: patent US20210379035A1, “Methods Of Treating Fabry Patients Having Renal Impairment” (Amicus Therapeutics, Inc., priority 2017, published 2021)

Experiments:
[1] = Plasma and urine PK in healthy volunteers and Fabry patients (single and multiple ascending dose studies); assay type: in vivo, human; settings: for Mean percent of the dose recovered in urine: SAD study
[2] = Plasma migalastat concentration in two Fabry patients with renal impairment (Example 3); assay type: in vivo, human; settings: for concentration at 3 h: 3 Hrs Post
Description: (§1) Thus, two Fabry patients with renal impairment were evaluated. One patient (P1) had moderate renal impairment, while the other patient (P2) had severe renal impairment. […] The comparison with the results from the ERT-naïve study allows for comparison of PK in the Fabry population with mostly normal, but some mild and a few moderately impaired Fabry patients. None of the patients in the ERT-naïve study had severe renal impairment because these patients were excluded from the study.

[3] = ERT-naïve study population PK from sparse blood sampling; assay type: in vivo, human; settings: ERT-naïve Fabry patients
Description: as §1

[4] = test system: Fabry patients; test: eGFR (MDRD) in Fabry patient P1; assay type: in vivo, human; settings: P1 on migalastat, moderate impairment
Description: as §1

[5] = Additional simulations on renal impairment subjects (Example 4); set-up: species or system human; settings: simulation
[6] = test system: Fabry patients; test: ERT-experienced study: renal function (eGFR, mGFR); assay type: in vivo, human; settings: for Annualized Change in eGFRCKD-EPI, mean ± SE: ERT-Experienced, Migalastat 0-18 months; for mean annualized rate of change of eGFRCKD-EPI / mean annualized rate of change mGFRiohexol / mean±SE annualized rate of change of eGFRCKD-EPI: ERT-experienced study; for mean annualized rate of change of eGFRCKD-EPI: baseline to 18 months (FIG. 12A); for mean annualized rate of change mGFRiohexol: baseline to 18 months (FIG. 12B); for mean±SE annualized rate of change of eGFRCKD-EPI: baseline to 18 months (FIG. 13)
Description: One study was a 24-month trial, including a 6-month double-blind, placebo-controlled period, in 67 ERT-naïve patients. The other study was an active-controlled, 18-month trial in 57 ERT-experienced patients with a 12-month open-label extension (OLE). Both the ERT-naïve and ERT-experienced studies included Fabry patients having an eGFR of ≥30 mL/min/1.73 m^2. […] Annualized change in eGFR using the Modification of Diet in Renal Disease ([…]) was also calculated. […] Although the number of patients with moderate renal impairment included in this analysis is two (compared to three for the ERT-naïve study), the data supports the efficacy of migalastat when administered to patients with some form of renal impairment. A further analysis of data from these studies examined annualized change in […], WBC α-Gal A activity and plasma lyso-Gb3 levels based on renal function at baseline. The results for each renal subgroup are shown in Table 9 below, with the ERT-naïve study subgroups based on […] and the ERT-experienced study subgroups based on mGFRiohexol.

[7] = test system: α-Gal A; test: ERT-experienced study: WBC α-Gal A activity; assay type: in vivo, human; settings: Migalastat 0-18 months
Description: One study was a 24-month trial, including a 6-month double-blind, placebo-controlled period, in 67 ERT-naïve patients. The other study was an active-controlled, 18-month trial in 57 ERT-experienced patients with a 12-month open-label extension (OLE). Both the ERT-naïve and ERT-experienced studies included Fabry patients having an eGFR of ≥30 mL/min/1.73 m^2.
A further analysis of data from these studies examined annualized change in eGFRCKD-EPI, LVMi, WBC α-Gal A activity and plasma lyso-Gb3 levels based on renal function at baseline.

[8] = test system: Fabry patients; test: Analysis of 52 ERT-naive patients by baseline proteinuria: eGFR; assay type: in vivo, human; settings: for Annualized eGFRCKD-EPI Change Rate, Mean (SE): ERT-naive, migalastat HCl 150 mg QOD ≥17 months; for Annualized eGFR Rate of Change (eGFRMDRD), Mean (SEM): Migalastat cohort
Description: Another analysis was performed on patients who participated in multiple studies for the use of migalastat. […] Results for […] were compared with changes in […] reported in the literature for untreated patients with Fabry disease (natural history cohort; Schiffmann R et al. Nephrol Dial Transplant. 2009; 24:2102-11) and are shown in Table 15 below: […]

[9] = molecular target: T1, α-Gal A (Homo sapiens, UniProt P06280); settings: selective and reversible binding; cited from earlier work
T1 sequence (P06280 32-429): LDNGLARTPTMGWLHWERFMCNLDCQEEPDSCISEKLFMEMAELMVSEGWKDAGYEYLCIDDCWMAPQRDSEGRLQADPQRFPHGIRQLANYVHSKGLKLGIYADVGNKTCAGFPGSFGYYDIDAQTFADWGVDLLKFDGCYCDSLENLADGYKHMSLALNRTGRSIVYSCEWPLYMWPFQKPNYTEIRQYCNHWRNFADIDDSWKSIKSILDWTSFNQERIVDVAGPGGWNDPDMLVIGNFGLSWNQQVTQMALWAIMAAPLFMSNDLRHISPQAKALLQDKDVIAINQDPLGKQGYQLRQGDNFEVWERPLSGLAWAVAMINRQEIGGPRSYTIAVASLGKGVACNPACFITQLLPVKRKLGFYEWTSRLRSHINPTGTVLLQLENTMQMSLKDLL

[10] = P1, second measurement set 6 months after the first
[11] = mild or moderate renal impairment
[12] = Females, baseline urine protein 100-1000 mg/24 h
[13] = Females, baseline urine protein <100 mg/24 h
[14] = Females, baseline urine protein >1000 mg/24 h
[15] = Males, baseline urine protein 100-1000 mg/24 h
[16] = Males, baseline urine protein <100 mg/24 h
[17] = Males, baseline urine protein >1000 mg/24 h

In the case of OC[C@H]1NC[C@H](O)[C@@H](O)[C@H]1O [migalastat, (2R,3S,4R,5S)-2-(hydroxymethyl) piperdine-3,4,5-triol], the “Mean percent of the dose recovered in urine” value (“Mean percent” for short) ([1]; 25 mg) is reported as 32.2%, the “Mean percent” value ([1]; 75 mg) is reported as 43.0% and the “Mean percent” value ([1]; 225 mg) is reported as 49.3%. For the same compound, the “Mean percent” value ([1]; 675 mg) was 48.5%, the excretion ([1]; human, in vivo) was “primarily excreted unchanged in urine” and the half-life ([1]; human, plasma, single-dose studies, oral, read-out: mean elimination half-lives (t1/2)) was 3.04 to 4.79 h. For the same compound, the “accumulation of plasma migalastat” value ([1]; multiple ascending dose studies) was “only minimal accumulation”, the “increase of mean Cmax and AUC0-t with dose” value ([1]; oral doses from 75 mg to 1250 mg) was “dose-proportional manner” and the “time to maximum concentrations” value ([1]; single-dose studies, oral, range 1 to 6 hrs) was “approximately 3 hours”. The “increase of C48 concentration” value [2, 10] was 49%, the “increase of Cmax” value [2, 10] was 33% and the concentration at 3 h ([2]; human, plasma, Migalastat Conc 6 months later, Fabry patient P1, moderate renal impairment) was 2160 ng/mL. The concentration at 24 h ([2]; human, plasma, Migalastat Conc 6 months later, Fabry patient P1, moderate renal impairment, 24 Hrs Post) was 211 ng/mL, the concentration at 48 h ([2]; human, plasma, Migalastat Conc 6 months later, Fabry patient P1, moderate renal impairment, 48 Hrs Post) was 62.4 ng/mL and the concentration at 3 h ([2]; human, plasma, Migalastat Conc, Fabry patient P1, moderate renal impairment) was 1620 ng/mL. The concentration at 24 h ([2]; human, plasma, Migalastat Conc, Fabry patient P1, moderate renal impairment, 24 Hrs Post) was 168 ng/mL, the concentration at 48 h ([2]; human, plasma, Migalastat Conc, Fabry patient P1, moderate renal impairment, 48 Hrs Post) was 41.8 ng/mL and the concentration at 2 h ([2]; human, plasma, Migalastat Concentration, Fabry patient P2, severe renal impairment, 2 h, Occasion 1) was 564 ng/mL. The concentration at 24 h ([2]; human, plasma, Migalastat Concentration, Fabry patient P2, severe renal impairment, 24 h, Occasion 2) was 569 ng/mL, the concentration at 48 h ([2]; human, plasma, Migalastat Concentration, Fabry patient P2, severe renal impairment, 48 h, Occasion 1) was 322 ng/mL and the concentration at 48 h ([2]; human, plasma, Migalastat Concentration, Fabry patient P2, severe renal impairment, 48 h, Occasion 2) was 260 ng/mL. For the same compound, the “Comparison to ERT-Naïve Study PK (migalastat concentration)” value ([3]; Pre-dose (0 h)) was 8.70 ng/mL, the concentration at 3 h ([3]; human, plasma, 3 Hrs Post) was 1180 ng/mL and the concentration at 48 h ([3]; human, plasma, 48 h) was 8.7 ng/mL. For the same compound, the eGFRMDRD [4] was 32 mL/min, the “AUC Ratio” value ([5]; Mild (>=60-<90) vs Normal) was 1.2 and the “AUC Ratio” value ([5]; Moderate (>=30-<60) vs Normal) was 1.9. For the same compound, the “AUC Ratio” value ([5]; Severe (<30) vs Normal) was 4.8, the “Annualized Change in eGFRCKD-EPI, mean ± SE” value ([6]; renal subgroup 30 to < 60) was −4.2 ± 2.7 mL/min/1.73 m^2 and the “Annualized Change in eGFRCKD-EPI, mean ± SE” value ([6]; renal subgroup ≥60) was −0.4 ± 0.8 mL/min/1.73 m^2. For the same compound, the “mean annualized rate of change of eGFRCKD-EPI” value [6, 11] was −3.33 mL/min/1.73 m^2/year, the “mean annualized rate of change of eGFRCKD-EPI” value ([6]; normal renal function) was −0.4 mL/min/1.73 m^2/year and the “mean annualized rate of change mGFRiohexol” value [6, 11] was −3.51 mL/min/1.73 m^2/year. The “mean annualized rate of change mGFRiohexol” value ([6]; normal renal function) was −4.35 mL/min/1.73 m^2/year, the “mean±SE annualized rate of change of eGFRCKD-EPI” value ([6]; mild renal impairment) was −0.2±1.25 mL/min/1.73 m^2/year and the “mean±SE annualized rate of change of eGFRCKD-EPI” value ([6]; moderate renal impairment) was −4.5±2.68 mL/min/1.73 m^2/year. For the same compound, the “mean±SE annualized rate of change of eGFRCKD-EPI” value ([6]; normal renal function) was −2.0±0.57 mL/min/1.73 m^2/year, the “WBC α-Gal A Activity (males only), change from baseline, mean ± SE” value ([7]; renal subgroup 30 to < 60) was “+4.6 ± 2.3 4MU/hr/mg” and the “WBC α-Gal A Activity (males only), change from baseline, mean ± SE” value ([7]; renal subgroup ≥60) was “+5.5 ± 1.4 4MU/hr/mg”. For the same compound, the “Annualized eGFRCKD-EPI Change Rate, Mean (SE)” value [8, 12] was −0.3 (1.0) mL/min/1.73 m^2, the “Annualized eGFRCKD-EPI Change Rate, Mean (SE)” value [8, 13] was −0.9 (0.4) mL/min/1.73 m^2 and the “Annualized eGFRCKD-EPI Change Rate, Mean (SE)” value [8, 14] was −2.2 (1.3) mL/min/1.73 m^2. For the same compound, the “Annualized eGFRCKD-EPI Change Rate, Mean (SE)” value [8, 15] was 0.2 (0.8) mL/min/1.73 m^2, the “Annualized eGFRCKD-EPI Change Rate, Mean (SE)” value [8, 16] was 0.4 (1.0) mL/min/1.73 m^2 and the “Annualized eGFRCKD-EPI Change Rate, Mean (SE)” value [8, 17] was −5.1 (0.1) mL/min/1.73 m^2. For the same compound, the “Annualized eGFR Rate of Change (eGFRMDRD), Mean (SEM)” value [8, 12] was 1.3 (1.5) mL/min/m^2, the “Annualized eGFR Rate of Change (eGFRMDRD), Mean (SEM)” value [8, 13] was −0.9 (0.5) mL/min/m^2 and the “Annualized eGFR Rate of Change (eGFRMDRD), Mean (SEM)” value [8, 14] was −1.7 (1.1) mL/min/m^2. The “Annualized eGFR Rate of Change (eGFRMDRD), Mean (SEM)” value [8, 15] was 0.9 (1.0) mL/min/m^2, the “Annualized eGFR Rate of Change (eGFRMDRD), Mean (SEM)” value [8, 16] was 1.2 (1.2) mL/min/m^2 and the “Annualized eGFR Rate of Change (eGFRMDRD), Mean (SEM)” value [8, 17] was −4.3 (0.1) mL/min/m^2. For the same compound, the “binding to the active site of wild-type α-Gal A and specific mutant forms of α-Gal A” value [9] was “high affinity”.
